These results are taken from US20230131899A1, “INHIBITORS OF MICROBIALLY INDUCED AMYLOID” (Axial Therapeutics, Inc., priority 2020, published 2023).

The test system of assay [1] is CsgA gene expression (csgBAC promoter-GFP reporter) in E. coli UTI89. The assay is described as follows: In vitro live cell fluorescent reporter assay of CsgA transcription (Reporter Assay). The format is cell-based. The note with it: Escherichia coli. The procedure, abridged:
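Chromosomal single-copy csgBAC promoter–GFP reporter in E. coli UTI89, started at OD600 0.003 in YESCA broth with compound (0.14–100 μM, 1% DMSO), 20 h at 27 °C. GFP (ex 485/em 525 nm) background-subtracted and normalized to vehicle; IC50 and X[50] from curve fits. OD600 tracked growth effects.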
(In general: Reporter assays use an easily measured gene product as a stand-in for the process of interest.)

For assay [2], the target named is T1, E. coli CsgA (Escherichia coli, UniProt P28307).
T1 construct: made in house; host or cells: E. coli NEB 3016 slyD::kan, pET11d
T1 sequence (P28307 23-151): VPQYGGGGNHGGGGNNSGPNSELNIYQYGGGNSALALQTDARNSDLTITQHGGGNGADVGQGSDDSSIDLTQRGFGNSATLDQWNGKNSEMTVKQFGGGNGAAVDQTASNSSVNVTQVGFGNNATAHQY
The assay is described as follows: In vitro ThioflavinT assay of CsgA aggregation (CsgA ThT Assay). The format is biochemical. The note with it: for remaining activity at 25 µM: compound 25 μM; for remaining activity at 100 µM: compound 100 μM. In short, it runs like this:
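Purified C-terminal His-tagged CsgA, monomerised by desalting and 30-kDa filtration, at 2-20 μM with 20-40 μM ThT in 50 mM potassium phosphate pH 7.3, 1% DMSO, compounds 3.125-200 uM; room temperature, fluorescence (ex 438/em 495 nm) read every 15 min. Background-subtracted signal expressed as percent inhibition versus vehicle at 6-6.5 or 8-9 h, or as percent control AUC.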

[3] abbreviates: read-out: Reporter Assay Abs IC50 (activity range), median Abs IC50 in the CsgA reporter assay, class symbol.
Setting [4] is: read-out: Reporter Assay Abs IC50 (μM), median Abs IC50 in the CsgA reporter assay, N/A = maximum expression reduction is <50% of control.
[5] abbreviates: read-out: CsgA ThT Assay (10 μM CsgA) % Control AUC at 1005 minutes, 25 μM (activity range), CsgA 10 μM, black plates, 1005 minutes, class symbol.
[6] abbreviates: read-out: CsgA ThT Assay (10 μM CsgA) % Control AUC at 1005 minutes, 25 μM, mean AUC as % of DMSO control, CsgA 10 μM, black plates, 1005 minutes.
The mark [7] stands for this setting: read-out: Reporter Assay Abs IC50, activity range, class symbol.
Setting [8] is: read-out: CsgA ThT Assay (2 μM CsgA) % Control Bmax 25 μM, activity range, class symbol, CsgA 2 μM, white plates.
The mark [9] stands for this setting: read-out: CsgA ThT Assay (2 μM CsgA) % Control Bmax 25 μM, mean Bmax as percentage of DMSO control, CsgA 2 μM, white plates.
[10] abbreviates: read-out: CsgA ThT Assay (2 μM CsgA) % Control Bmax 100 μM, activity range, class symbol, CsgA 2 μM, white plates.
[11] abbreviates: read-out: CsgA ThT Assay (2 μM CsgA) % Control Bmax 100 μM, mean Bmax as percentage of DMSO control, CsgA 2 μM, white plates.
The mark [12] stands for this setting: read-out: CsgA ThT Assay (10 μM CsgA) % Control AUC at 1005 minutes, 100 μM (activity range), CsgA 10 μM, black plates, 1005 minutes, class symbol.
Setting [13] is: read-out: CsgA ThT Assay (10 μM CsgA) % Control AUC at 1005 minutes, 100 μM, mean AUC as % of DMSO control, CsgA 10 μM, black plates, 1005 minutes.

Each structure is given as a SMILES string. Read-outs that look alike come from different tables or passages of the source.

By IC50 is commonly meant the point on the concentration scale where inhibition reaches its midpoint. On to `COc1ccc(CN2C[C@H](C(=O)O)n3c(c(-c4cccc(C(F)(F)F)c4)c(Cc4cccc5ccccc45)cc3=O)S2(=O)=O)cc1` (single isomer, unassigned) [Compound 026b], for which the IC50 in assay [1] (setting [3]) is 1.3 to 4.5 µM; in assay [1] (setting [4]), 2.8 µM. Besides, the remaining activity at 25 µM in assay [2] (setting [5]) was 31 to 60%; in assay [2] (setting [6]), 47%.

In the case of `O=C(O)[C@@H]1CN(Cc2ccccc2)c2c(-c3cccc(C(F)(F)F)c3)c(Cc3cccc4ccccc34)c(Br)c(=O)n21` (single isomer, unassigned) [Compound 189], the IC50 in assay [1] (setting [4]) is 1.4 µM; in assay [1] (setting [7]), 1.3 to 4.5 µM. Besides, the results for the remaining activity at 25 µM in assay [2] (setting [8]) and in assay [2] (setting [9]) were 31 to 60% and 58%, respectively. Also, the remaining activity at 100 µM in assay [2] (setting [10]) is 31 to 60%; in assay [2] (setting [11]) it was 49%.

As to `O=C(O)[C@H]1CN(Cc2ccccc2)c2c(-c3cccc(C(F)(F)F)c3)c(Cc3cccc4ccccc34)c(Br)c(=O)n21` (single isomer, unassigned) [Compound 190], the IC50 in assay [1] (setting [4]) was 1.6 µM; in assay [1] (setting [7]), 1.3 to 4.5 µM. For the same compound, the remaining activity at 25 µM in assay [2] (setting [8]) was greater than 60%; in assay [2] (setting [9]) it was 63%. Moreover, the remaining activity at 100 µM in assay [2] (setting [10]) is 31 to 60%; in assay [2] (setting [11]), 56%.

Regarding `CCCN1CC(C(=O)O)n2c(c(-c3cccc(C(F)(F)F)c3)c(Cc3cccc4ccccc34)c(OCCc3ccccc3)c2=O)S1(=O)=O` (centres unmarked) [Compound 001, 8-(naphthalen-1-ylmethyl)-6-oxo-7-phenethoxy-2-propyl-9-(3-(trifluoromethyl)phenyl)-3,4-dihydro-2H,6H-pyrido[1,2-e][1,2,5]thiadiazine-4-carboxylic acid 1,1-dioxide], the results for the half-inhibitory concentration (IC50) in assay [1] (setting [3]) and in assay [1] (setting [4]) were 1.3 to 4.5 µM and 1.5 µM, respectively. For the same compound, the remaining activity at 25 µM in assay [2] (setting [5]) is 31 to 60%; in assay [2] (setting [6]), 36%. Besides, the remaining activity at 100 µM was 31 to 60% in assay [2] (setting [12]) and 35% in assay [2] (setting [13]).

In the case of `O=C(O)C1CN(CC2CCCC2)S(=O)(=O)c2c(-c3cccc(C(F)(F)F)c3)c(Cc3cccc4ccccc34)c(NC3CCCC3)c(=O)n21` (centres unmarked) [Compound 002, 7-(cyclopentylamino)-2-(cyclopentylmethyl)-8-(naphthalen-1-ylmethyl)-6-oxo-9-(3-(trifluoromethyl)phenyl)-3,4-dihydro-2H,6H-pyrido[1,2-e][1,2,5]thiadiazine-4-carboxylic acid 1,1-dioxide], the IC50 was 4.1 µM in assay [1] (setting [4]) and 1.3 to 4.5 µM in assay [1] (setting [7]). The results for the remaining activity at 25 µM in assay [2] (setting [8]) and in assay [2] (setting [9]) were 31 to 60% and 60%, respectively. For the same compound, the remaining activity at 100 µM was greater than 60% in assay [2] (setting [10]) and 137% in assay [2] (setting [11]).

As to `CCCN1CC(C(=O)O)n2c(cc(Cc3cccc4ccccc34)c(NC3CCCC3)c2=O)S1(=O)=O` (centres unmarked) [Compound 006, 7-(cyclopentylamino)-8-(naphthalen-1-ylmethyl)-6-oxo-2-propyl-3,4-dihydro-2H,6H-pyrido[1,2-e][1,2,5]thiadiazine-4-carboxylic acid 1,1-dioxide], the IC50 in assay [1] (setting [4]) is 70 µM; in assay [1] (setting [7]), greater than 10 µM. For the same compound, the remaining activity at 25 µM in assay [2] (setting [8]) was greater than 60%; in assay [2] (setting [9]) it was 66%. Also, the remaining activity at 100 µM in assay [2] (setting [10]) is 31 to 60%; in assay [2] (setting [11]), 34%.

For the compound `COC(=O)C1CSc2c(-c3cccc(C(F)(F)F)c3)c(Cc3cccc4ccccc34)cc(=O)n21` (centres unmarked) [Compound 012, Methyl 7-(naphthalen-1-ylmethyl)-5-oxo-8-(3-(trifluoromethyl)phenyl)-2,3-dihydro-5H-thiazolo[3,2-a]pyridine-3-carboxylate], the IC50 in assay [1] (setting [3]) was 1.3 to 4.5 µM; in assay [1] (setting [4]) it was 3.3 µM. For the same compound, the values for the remaining activity at 25 µM in assay [2] (setting [5]) and in assay [2] (setting [6]) were greater than 60% and 108%, respectively. The remaining activity at 100 µM in assay [2] (setting [12]) was greater than 60%; in assay [2] (setting [13]), 107%.

With `Cn1c(=O)c2c(ncn2CCCCCCN2CC(C(=O)O)n3c(c(-c4cccc(C(F)(F)F)c4)c(Cc4cccc5ccccc45)cc3=O)S2(=O)=O)n(C)c1=O` (centres unmarked) [Compound 035, 2-(6-(1,3-dimethyl-2,6-dioxo-1,2,3,6-tetrahydro-7H-purin-7-yl)hexyl)-8-(naphthalen-1-ylmethyl)-6-oxo-9-(3-(trifluoromethyl)phenyl)-3,4-dihydro-2H,6H-pyrido[1,2-e][1,2,5]thiadiazine-4-carboxylic acid 1,1-dioxide], the IC50 in assay [1] (setting [3]) was 1.3 to 4.5 µM; in assay [1] (setting [4]), 1.5 µM. Further, the remaining activity at 25 µM in assay [2] (setting [5]) was greater than 60%; in assay [2] (setting [6]) it was 65%.

`CNC(=O)CN1CC(C(=O)O)n2c(c(-c3cccc(C(F)(F)F)c3)c(Cc3cccc4ccccc34)cc2=O)S1(=O)=O` (centres unmarked) [Compound 049, 2-(2-(methylamino)-2-oxoethyl)-8-(naphthalen-1-ylmethyl)-6-oxo-9-(3-(trifluoromethyl)phenyl)-3,4-dihydro-2H,6H-pyrido[1,2-e][1,2,5]thiadiazine-4-carboxylic acid 1,1-dioxide]: the IC50 was 4.6 to 10 µM in assay [1] (setting [3]) and 8.9 µM in assay [1] (setting [4]). Besides, the remaining activity at 25 µM was greater than 60% in assay [2] (setting [5]) and 74% in assay [2] (setting [6]). For the same compound, the remaining activity at 100 µM in assay [2] (setting [12]) was 31 to 60%; in assay [2] (setting [13]) it was 35%.

Regarding `CCCCCN1CC(C(=O)O)n2c(c(-c3cccc(C(F)(F)F)c3)c(Cc3ccc(N)c4ccccc34)cc2=O)S1(=O)=O` (centres unmarked) [Compound 052], the results for the IC50 in assay [1] (setting [3]) and in assay [1] (setting [4]) were less than 1.3 µM and 1.1 µM, respectively. For the same compound, the remaining activity at 25 µM is 31 to 60% in assay [2] (setting [5]) and 42% in assay [2] (setting [6]). Moreover, the figures for the remaining activity at 100 µM in assay [2] (setting [12]) and in assay [2] (setting [13]) were 11 to 31% and 20%, respectively.

In the case of `O=C(c1nc(=O)n2c(c1-c1cccc(C(F)(F)F)c1)SCC2C(=O)O)c1cccc2ccccc12` (centres unmarked) [Compound 055, 7-(1-naphthoyl)-5-oxo-8-(3-(trifluoromethyl)phenyl)-2,3-dihydro-5H-thiazolo[3,2-c]pyrimidine-3-carboxylic acid], the values for the IC50 in assay [1] (setting [3]) and in assay [1] (setting [4]) were greater than 10 µM and 11 µM, respectively. Moreover, the remaining activity at 25 µM was greater than 60% in assay [2] (setting [5]) and 73% in assay [2] (setting [6]). In addition, the remaining activity at 100 µM was 11 to 31% in assay [2] (setting [12]) and 17% in assay [2] (setting [13]).

Regarding `CN1CC(C(=O)O)n2c(c(-c3cccc(C(F)(F)F)c3)c(Cc3cccc4ccccc34)c(Br)c2=O)S1(=O)=O` (centres unmarked) [Compound 058, 7-bromo-2-methyl-8-(naphthalen-1-ylmethyl)-6-oxo-9-(3-(trifluoromethyl)phenyl)-3,4-dihydro-2H,6H-pyrido[1,2-e][1,2,5]thiadiazine-4-carboxylic acid 1,1-dioxide], the IC50 in assay [1] (setting [3]) is greater than 10 µM; in assay [1] (setting [4]) it was 19.8 µM. Besides, the values for the remaining activity at 25 µM in assay [2] (setting [5]) and in assay [2] (setting [6]) were 31 to 60% and 47%, respectively. The remaining activity at 100 µM is 11 to 31% in assay [2] (setting [12]) and 22% in assay [2] (setting [13]).

Consider `O=C(O)c1c(Cc2ccccc2)sc2c(-c3cccc(C(F)(F)F)c3)c(Cc3cccc4ccccc34)cc(=O)n12` [Compound 060, 2-benzyl-7-(naphthalen-1-ylmethyl)-5-oxo-8-(3-(trifluoromethyl)phenyl)-5H-thiazolo[3,2-a]pyridine-3-carboxylic acid], for which the IC50 in assay [1] (setting [3]) was 1.3 to 4.5 µM; in assay [1] (setting [4]), 1.4 µM. Moreover, the results for the remaining activity at 25 µM in assay [2] (setting [5]) and in assay [2] (setting [6]) were greater than 60% and 91%, respectively. Also, the remaining activity at 100 µM in assay [2] (setting [12]) is greater than 60%; in assay [2] (setting [13]), 98%.
